From patent publication US12312346B2, “Pyridopyrimidine compounds and methods of their use” (Tufts Medical Center, Inc., priority 2018, dated 2025)

Tested on: human leukemia cell line HPBALL (with Notch1 mutations)
Assay: Cell cycle (PI staining, S-G2-M cells) and cell number, HPBALL
Format: cell-based
Conditions: Homo sapiens, 144 h; HPBALL, 6 days; read-out: IC50 (inhibition of proliferation, percentage of S-G2-M cells)
Procedure: FIG. 1A is a series of charts showing representative cell cycle profiles of human leukemia cell line HPBALL (with Notch1 mutations) treated with a vehicle (V) (for ribociclib (LEE) or compound GD) or LEE or compound GD for 6 days at 1, 5, 10, and 20 μM.
FIG. 1B is a histogram summarizing the cell cycle distribution of the HPBALL cell line treated with compound GD, as described for FIG. 1A. Data shown are mean±S.D. (n=6); *P<0.05 vs its vehicle controls, t-test.
FIG. 1C is a histogram summarizing the cell cycle distribution of the HPBALL cell line treated with ribociclib (LEE), as described for FIG. 1A. Data shown are mean±S.D. (n=6); *P<0.05 vs its vehicle controls, t-test.
FIG. 1D is a chart the percentage of S-G2-M cells in FIGS. 1B and 1C. IC50 is the concentration of an inhibitor where the response (here is the inhibition of proliferation) is reduced by half.
FIG. 1E is a bar graph summarizing the cell numbers of HPBALL cells treated with either GD with different doses or LEE (20 μM) for 6 days. Data shown are mean±S.D. (n=6); *P<0.05 vs vehicles (0) control, t-test.
HCl salt of 6-acetyl-5-methyl-2-((4-(piperazin-1-ylmethyl)thiazol-2-yl)amino)pyrido[2,3-d]pyrimidin-7(8H)-one (Compound GD) prepared in Example 1 was examined for its inhibitory activity in cancer cell lines and WT and CDK6^−/− mouse embryonic fibroblasts (MEFs) and stromal vascular fractions (SVFs). […]
Table 2: Experimental Procedures: sensitivity to CDK6 kinase activity inhibition was tested by incubating different cell lines in the presence of CDK6 inhibitor GD007/PBS for either 24 hours for detecting the status of pRB-780 phosphorylation, or 5 days for determining the effect of GD007 on cell proliferation. (1) By immunoblotting (WB), we will detect phospho-pRB-S^780, one of the substrates of CDK6 kinase; (2) By using FACS analysis, we will stain treated cells with Propidium Iodide (PI), a commonly used fluorescent intercalator, to measure the subpopulation of cell cycle to reveal any impact of CDK6 inhibition on cell proliferation; (3) cell numbers will be counted using hemocytometer.

IC50: ~12 µM
Structure (SMILES): CN(C)C(=O)c1cc2cnc(Nc3ccc(N4CCNCC4)cn3)nc2n1C1CCCC1 [LEE, ribociclib, reference compound]
